Consider 28 molecules from US20260083728A1, “COMPOUNDS FOR TREATING INFECTIONS WITH PARASITIC PROTOZOA” (OHIO STATE INNOVATIION FOUNDATION, priority 2022, published 2026).

Series [1] has as its system L. donovani LV82 promastigotes. The series is described as follows: Promastigote assay (proliferation). The class given is cell-based. Particulars: Leishmania donovani, n ≥ 3 independent experiments.
Procedure: Promastigote assay. The effect of the compounds on the proliferation of Leishmania donovani LV82 strain parasites (MHOM/ET/67:LV82) was carried out as outlined by Feng et al.^26
The test system of series [2] is intracellular L. donovani LV82 parasites. Description: L. donovani-infected macrophage assay (high content imaging). The class given is cell-based, Leishmania donovani. Particulars: for effect on intracellular parasites: at non-toxic concentrations. From the text:
(§1) Evaluation in an infected macrophage model. Four of the compounds described above were selected for evaluation in an L. donovani infected macrophage model. […] An image-based assay employing murine peritoneal macrophages as host cells and DAPI as an indicator that was based on assays reported previously in the literature^23-24 was used to evaluate these compounds.
(§2) L. donovani-infected macrophage assay. The efficacy of selected target compounds against intracellular L. donovani LV82 parasites was conducted using murine peritoneal macrophages as the host cell in a high content imaging assay essentially as described by Joice et al.^24 and Abdelhameed et al.^28, with the following modifications. The density of peritoneal macrophages was 5×10^4 host cells/well, with the parasite/macrophage ratio remaining at 5:1. The concentration of 4,6-diamidino-2-phenylindole (DAPI) employed for nuclear staining was 4 μM. […] For the quantification of the infection, macrophage nuclei were selected first by DAPI staining with area larger than 30 μm^2. The cytoplasm was selected consequentially based on the nuclei with the digital phase contrast (DPC) channel. Parasites in the cytoplasm were selected based on relative intensity. Parasites per macrophage in each well were exported to a CSV file to generate dose responses, with data analysis performed as described by Joice et al.^24

In another series the test system is J774 macrophages. The series is described as follows: J774 macrophage assay. Particulars: Mus musculus; J774 murine macrophages; n ≥ 3 independent experiments. The class given is cell-based.
Series [3] concerns murine peritoneal macrophages. The series is described as follows: Host cell toxicity in the infected macrophage assay. Format: cell-based. Conditions: for host cell toxicity: 25 μM and below; for toxicity to host cells: 50 μM.
Source text: as §1, §2

The next series deals with L. donovani CYP5122A1 (Leishmania donovani, UniProt Q2XQE3). Description: Leishmania CYP5122A1 inhibition assay. The class given is biochemical. Conditions: comparator 18a.
Sequence of L. donovani CYP5122A1 (Q2XQE3 entry or part of it): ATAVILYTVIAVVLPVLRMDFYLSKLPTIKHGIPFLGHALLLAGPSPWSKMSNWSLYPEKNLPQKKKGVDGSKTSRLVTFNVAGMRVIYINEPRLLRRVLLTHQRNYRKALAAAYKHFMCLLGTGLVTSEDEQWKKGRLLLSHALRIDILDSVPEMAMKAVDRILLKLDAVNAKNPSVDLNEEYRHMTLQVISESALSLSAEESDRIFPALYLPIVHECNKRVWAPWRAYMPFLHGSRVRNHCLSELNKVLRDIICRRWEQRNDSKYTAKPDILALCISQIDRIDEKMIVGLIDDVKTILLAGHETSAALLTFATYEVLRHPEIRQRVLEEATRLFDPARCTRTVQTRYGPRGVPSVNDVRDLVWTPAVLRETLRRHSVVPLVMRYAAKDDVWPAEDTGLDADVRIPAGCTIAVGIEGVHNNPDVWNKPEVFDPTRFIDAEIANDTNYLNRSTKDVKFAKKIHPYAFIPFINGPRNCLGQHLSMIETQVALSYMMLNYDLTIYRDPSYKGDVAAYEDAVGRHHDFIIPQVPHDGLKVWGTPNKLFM
Another series concerns the target L. donovani CYP51 (Leishmania donovani, UniProt A0A3S7WRS7). Description: Leishmania CYP51 inhibition assay. The class given is biochemical. Particulars: comparator 18a.
[4] abbreviates: murine peritoneal macrophages as host cells, n=3 determinations.

Sequence of L. donovani CYP51 (A0A3S7WRS7 entry or part of it): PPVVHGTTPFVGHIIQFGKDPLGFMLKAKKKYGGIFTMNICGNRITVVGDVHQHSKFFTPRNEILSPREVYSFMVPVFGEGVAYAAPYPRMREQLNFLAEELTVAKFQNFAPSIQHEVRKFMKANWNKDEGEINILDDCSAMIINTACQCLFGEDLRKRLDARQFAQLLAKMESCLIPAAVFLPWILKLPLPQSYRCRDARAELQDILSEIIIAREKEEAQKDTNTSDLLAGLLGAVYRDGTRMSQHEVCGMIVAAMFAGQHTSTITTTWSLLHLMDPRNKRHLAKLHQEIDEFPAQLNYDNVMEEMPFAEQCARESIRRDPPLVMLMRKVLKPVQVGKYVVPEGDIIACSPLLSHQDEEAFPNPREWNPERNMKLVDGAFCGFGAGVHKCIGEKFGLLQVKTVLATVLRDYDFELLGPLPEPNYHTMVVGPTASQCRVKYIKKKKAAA
Procedure for J774 macrophages: J774 macrophage assay. This assay was performed as reported by Zhu et al.^27
Procedure for L. donovani CYP5122A1: Leishmania CYP51 and CYP5122A1 assays. The cloning, expression, purification, and inhibition assays performed with L. donovani CYP51 and CYP5122A1 were conducted as described in Wang et al.^19

The molecule `Cc1cc(C)cc(NC(=O)N2CCN(Cc3ccncc3)CC2)c1` [Compound 4a, N-(3,5-dimethylphenyl)-4-(pyridin-4-ylmethyl)piperazine-1-carboxamide] had an EC50 in series [1] above 50 µM.
Still for that read-out and setting: as for `O=C(Nc1ccccc1)N1CCN(Cc2ccncc2)CC1` [Compound 4b, N-phenyl-4-(pyridin-4-ylmethyl)piperazine-1-carboxamide], the figure is above 100 µM.
In the case of `Cc1ccccc1NC(=O)N1CCN(Cc2ccncc2)CC1` [Compound 4c, 4-(Pyridin-4-ylmethyl)-N-(o-tolyl)piperazine-1-carboxamide], the EC50 in series [1] is above 100 µM.
On the same count and under the same terms, in the case of `Cc1cccc(NC(=O)N2CCN(Cc3ccncc3)CC2)c1` [Compound 4d, 4-(Pyridin-4-ylmethyl)-N-(m-tolyl)piperazine-1-carboxamide] it was above 100 µM; in that of `Cc1ccc(NC(=O)N2CCN(Cc3ccncc3)CC2)cc1` [Compound 4e, 4-(Pyridin-4-ylmethyl)-N-(p-tolyl)piperazine-1-carboxamide], above 100 µM.
The molecule `Cc1cc(NC(=O)N2CCN(Cc3ccncc3)CC2)cc(C)c1C` [Compound 4f, 4-(pyridin-4-ylmethyl)-N-(3,4,5-trimethylphenyl)piperazine-1-carboxamide] showed an EC50 in series [1] above 50 µM.
For the molecule `CC(C)(C)c1cccc(NC(=O)N2CCN(Cc3ccncc3)CC2)c1` [Compound 4g, N-(3-(tert-butyl)phenyl)-4-(pyridin-4-ylmethyl)piperazine-1-carboxamide], in series [2], the “effect on intracellular parasites” value is given as “little effect”. Further, the EC50 with J774 macrophages was above 50 µM.
Take `COc1cccc(NC(=O)N2CCN(Cc3ccncc3)CC2)c1` [Compound 4i, N-(3-methoxyphenyl)-4-(pyridin-4-ylmethyl)piperazine-1-carboxamide]: the EC50 in series [1] was above 100 µM.
Still for that read-out and setting: as for `COc1ccc(NC(=O)N2CCN(Cc3ccncc3)CC2)cc1` [Compound 4j, N-(4-methoxyphenyl)-4-(pyridin-4-ylmethyl)piperazine-1-carboxamide], the figure is above 100 µM; as for `COc1cc(NC(=O)N2CCN(Cc3ccncc3)CC2)cc(OC)c1` [Compound 4k, N-(3,5-dimethoxyphenyl)-4-(pyridin-4-ylmethyl)piperazine-1-carboxamide], above 100 µM.
In series [1], `CC(C)Oc1cccc(NC(=O)N2CCN(Cc3ccncc3)CC2)c1` [Compound 4l, N-(3-isopropoxyphenyl)-4-(pyridin-4-ylmethyl)piperazine-1-carboxamide] came in with an EC50 above 50 µM.
Still for that read-out and setting: in the case of `O=C(Nc1ccccc1Cl)N1CCN(Cc2ccncc2)CC1` [Compound 4m, N-(2-chlorophenyl)-4-(pyridin-4-ylmethyl)piperazine-1-carboxamide] it was above 100 µM; in that of `O=C(Nc1cccc(Cl)c1)N1CCN(Cc2ccncc2)CC1` [Compound 4n, N-(3-chlorophenyl)-4-(pyridin-4-ylmethyl)piperazine-1-carboxamide], above 100 µM; in that of `O=C(Nc1ccc(Cl)cc1)N1CCN(Cc2ccncc2)CC1` [Compound 4o, N-(4-chlorophenyl)-4-(pyridin-4-ylmethyl)piperazine-1-carboxamide], above 100 µM.
As to `O=C(Nc1cccc(F)c1)N1CCN(Cc2ccncc2)CC1` [Compound 4q, N-(3-fluorophenyl)-4-(pyridin-4-ylmethyl)piperazine-1-carboxamide], the EC50 in series [1] was above 100 µM.
For `O=C(Nc1ccc(F)cc1)N1CCN(Cc2ccncc2)CC1` [Compound 4r, N-(4-fluorophenyl)-4-(pyridin-4-ylmethyl)piperazine-1-carboxamide], in series [1], the EC50 was above 100 µM.
Regarding `O=C(Nc1cc(F)cc(F)c1)N1CCN(Cc2ccncc2)CC1` [Compound 4s, N-(3,5-difluorophenyl)-4-(pyridin-4-ylmethyl)piperazine-1-carboxamide], in series [1], the half-maximal effective concentration (EC50) was above 100 µM.
`O=C(Nc1cccc(C(F)(F)F)c1)N1CCN(Cc2ccncc2)CC1` [Compound 4t, 4-(Pyridin-4-ylmethyl)-N-(3-(trifluoromethyl)phenyl)piperazine-1-carboxamide] had an EC50 in series [1] of 48 µM.
Consider `O=C(Nc1ccc(C(F)(F)F)cc1)N1CCN(Cc2ccncc2)CC1` [Compound 4u, 4-(Pyridin-4-ylmethyl)-N-(4-(trifluoromethyl)phenyl)piperazine-1-carboxamide], for which, in series [1], the EC50 was above 50 µM.
For `O=C(Nc1cc(C(F)(F)F)cc(C(F)(F)F)c1)N1CCN(Cc2ccncc2)CC1` [Compound 4v, N-(3,5-bis(trifluoromethyl)phenyl)-4-(pyridin-4-ylmethyl)piperazine-1-carboxamide], the “effect on intracellular parasites” value in series [2] was “little effect”. This molecule also showed an EC50 in series [1] of around 10 µM.
In turn, `O=C(Nc1ccc(OCc2cc(C(F)(F)F)cc(C(F)(F)F)c2)cc1)N1CCN(CCCc2ccccc2)CC1` [Compound 18ab, N-(4-((3,5-bis(trifluoromethyl)benzyl)oxy)phenyl)-4-(3-phenylpropyl)piperazine-1-carboxamide] returned a half-maximal effective concentration (EC50) in series [1] above 50 µM.
On to `O=C(Nc1ccc(OCc2cc(C(F)(F)F)cc(C(F)(F)F)c2)cc1)N1CCN(CCc2ccncc2)CC1` [Compound 18e, N-(4-((3,5-bis(trifluoromethyl)benzyl)oxy)phenyl)-4-(2-(pyridin-4-yl)ethyl)piperazine-1-carboxamide], for which, in series [3], the host cell toxicity entry is listed as “lower” and the “toxicity to host cells” value is “exhibited toxicity to host cells”. Besides, in series [2] (Leishmania donovani, Peritoneal macrophage, murine peritoneal macrophages as host cells, n=3 determinations, read-out: EC50 against intracellular L. donovani), the EC50 was determined as 4 µM. The “EC50 against intracellular L. donovani” value in series [2] (setting [4]) is “low micromolar range”. For the same molecule, the “increase in inhibitory potency against CYP5122A1 compared to hit compound 18a” value on L. donovani CYP5122A1 is recorded as 3.4 fold.
Turning to `COc1cc(COc2ccc(NC(=O)N3CCN(CCc4ccncc4)CC3)cc2)cc(OC)c1` [Compound 18g, N-(4-((3,5-dimethoxybenzyl)oxy)phenyl)-4-(2-(pyridin-4-yl)ethyl)piperazine-1-carboxamide], the “decrease in activity against CYP51 compared to hit compound 18a” value on L. donovani CYP51 is listed as 1.8 fold. On L. donovani CYP5122A1, the “decrease in potency against CYP5122A1 compared to hit compound 18a” value is 3.0 fold.
For `CC(C)(C)c1cc(COc2ccc(NC(=O)N3CCN(CCc4ccncc4)CC3)cc2)cc(C(C)(C)C)c1` [Compound 18i, N-(4-((3,5-di-tert-butylbenzyl)oxy)phenyl)-4-(2-(pyridin-4-yl)ethyl)piperazine-1-carboxamide], in series [3], the host cell toxicity entry is reported as “lower” and the “toxicity to host cells” value is “exhibited toxicity to host cells”. Further, the “EC50 against intracellular L. donovani” value in series [2] (setting [4]) is on record as “low micromolar range”. At L. donovani CYP5122A1, the “increase in inhibitory potency against CYP5122A1 compared to hit compound 18a” value is 2.2 fold.
The molecule `O=C(Nc1ccc(OCc2cc(C(F)(F)F)cc(C(F)(F)F)c2)cc1)N1CCN(CCn2cccn2)CC1` [Compound 18o, 4-(2-(1H-pyrazol-1-yl)ethyl)-N-(4-((3,5-bis(trifluoromethyl)benzyl)oxy)phenyl)piperazine-1-carboxamide] returned an EC50 in series [1] of 30 µM.
Take `O=C(Nc1ccc(OCc2cc(C(F)(F)F)cc(C(F)(F)F)c2)cc1)N1CCN(CCn2cncn2)CC1` [Compound 18q, 4-(2-(1H-1,2,4-triazol-1-yl)ethyl)-N-(4-((3,5-bis(trifluoromethyl)benzyl)oxy)phenyl)piperazine-1-carboxamide]: the concentration for a half-maximal effect (EC50) (in series [1]; in the series with J774 macrophages) was above 50 µM in each case.
As for `O=C(Nc1ccc(OCc2cc(C(F)(F)F)cc(C(F)(F)F)c2)cc1)N1CCN(CCc2ccccc2)CC1` [Compound 18r, N-(4-((3,5-bis(trifluoromethyl)benzyl)oxy)phenyl)-4-phenethylpiperazine-1-carboxamide], in series [1], the concentration for a half-maximal effect (EC50) was above 12.5 µM.
`COc1ccc(CCN2CCN(C(=O)Nc3ccc(OCc4cc(C(F)(F)F)cc(C(F)(F)F)c4)cc3)CC2)cc1` [Compound 18x, N-(4-((3,5-bis(trifluoromethyl)benzyl)oxy)phenyl)-4-(4-methoxyphenethyl)piperazine-1-carboxamide] came in with an EC50 with J774 macrophages of 8.3 µM.
